{"source": "patent US8623387B2", "about": "“External preparation composition comprising fatty acid-based ionic liquid as active ingredient” (Medrx Co., Ltd., priority 2007, dated 2014)", "note": "Where a name gives a salt, the structure may show the parent alone."}
{"assay": "not given", "conditions": "carboxylic acids and organic amine compounds used for the ionic liquids; cited from earlier work"}
{"molecule": "CC(C)CCCCCCCCCCCCCCC(=O)O", "note": "[Isostearic acid]", "pKa": "(pKa ≈ 4.9)"}
{"molecule": "CCCCCCCCCCCC(=O)O", "note": "[Lauric acid]", "pKa": "(pKa ≈ 4.9)"}
{"assay": "not given", "conditions": "cited from earlier work"}
{"molecule": "CC(C(=O)O)c1ccc(CC2CCCC2=O)cc1", "note": "(centres unmarked) [Loxoprofen, reference compound]", "pKa": 4.20}
{"molecule": "CCc1ccc(C(=O)C(C)CN2CCCCC2)cc1", "note": "(centres unmarked) [Eperisone, reference compound]", "pKa": 8.91}
{"molecule": "NC1CCCCC1", "note": "[Cyclohexylamine]", "pKa": 10.63}
{"molecule": "CC(C(=O)O)c1ccc(-c2ccccc2)c(F)c1", "note": "(centres unmarked) [Flurbiprofen, reference compound]", "pKa": 3.78}
{"molecule": "CC(C)CCCCCCCCCCCCCCC(=O)O", "note": "[Isostearic acid]", "pKa": "approximately 4.9"}
{"molecule": "CCCCCCCC/C=C\\CCCCCCCC(=O)O", "note": "[oleic acid]", "pKa": "approximately 4.9"}
{"molecule": "OCCN1CCCC1", "note": "[N-hydroxyethyl-pyrrolidine, N-hydroxyethylpyrrolidine]", "pKa": 10.32}
{"molecule": "CCCCCCCCCCCCCC(=O)O", "note": "[Myristic acid]", "pKa": "ca.4.9"}
{"molecule": "CCc1cccc2c3c([nH]c12)C(CC)(CC(=O)O)OCC3", "note": "(centres unmarked) [Etodolac, reference compound]", "pKa": 4.5}
{"molecule": "CCCCCCN", "note": "[n-Hexylamine]", "pKa": 10.85}
{"molecule": "CC(=O)CCC(=O)O", "note": "[Levulinic acid]", "pKa": 4.5}
{"assay": "Transdermal absorbability evaluation test using Franz-cells (rat skin permeation)", "conditions": "indomethacin; cumulative amount permeated 6 hours after start of test; rat skin, Franz-cells"}
{"molecule": "COc1ccc2c(c1)c(CC(=O)O)c(C)n2C(=O)c1ccc(Cl)cc1", "note": "[Indomethacin, reference compound]", "Transdermal absorbability": "approximately 3 μg/cm^2"}
{"assay": "Transdermal absorbability evaluation test using Franz-cells (rat skin permeation)", "conditions": "tramadol salt liquid preparation free from ionic liquid; percentage of amount added onto the rat skin", "units": {"Rat skin permeability after 6 hours": "%"}}
{"molecule": "Butyrate", "Rat skin permeability after 6 hours": 23.8}
{"molecule": "Lactate", "Rat skin permeability after 6 hours": 0.2}
{"molecule": "CCCCC(CC)C(=O)O.COc1cccc(C2(O)CCCCC2CN(C)C)c1", "note": "(centres unmarked) [2-ethylhexanoate, 2-ethylhexanoate of Tramadol]", "Rat skin permeability after 6 hours": 12.1}
{"molecule": "COc1cccc(C2(O)CCCCC2CN(C)C)c1", "note": "(centres unmarked) [Hydrochloride, tramadol hydrochloride, reference compound]", "Rat skin permeability after 6 hours": 4.5}
{"assay": "pKa of acidic and basic substances present in the compositions", "format": "physicochemical", "conditions": "assumed to be equal to that of an analogue (footnote *1)"}
{"molecule": "Cc1ccc(C(=O)C(C)CN2CCCCC2)cc1", "note": "(centres unmarked) [Tolperisone, reference compound]", "pKa": "~8.9"}
{"molecule": "CCCCCCCCN", "note": "[n-Octylamine]", "pKa": 10.7}
